The supplement of paper PMC10307832

Assays:
Assay in all cases: relative viability (nuclei count vs DMSO), 5 days (fraction); higher = more cells survive
Serdemetan + Tozasertib = compound: c1ccc2c(CCNc3ccc(Nc4ccncc4)cc3)c[nH]c2c1 [Serdemetan] + Cc1cc(Nc2cc(N3CCN(C)CC3)nc(Sc3ccc(NC(=O)C4CC4)cc3)n2)n[nH]1 [Tozasertib] (partner 0.1 µM)
How it was run: (§1)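 Nuclei were stained with Hoechst during a one-step fixation (final 0.05% Triton X-100, 1% formaldehyde, 1 ug/ml Hoechst) carried out 5 days after dosing, then counted on 4× images. The cells, lung cancer lines in 1536-well plates, had been dosed by pin tool the day after seeding with one drug alone or a fixed anchor-drug dose plus five library-drug doses (not always all listed) in √10 steps. Relative viability is the nuclei count in treated wells divided by that in vehicle wells, and each value is the median of duplicate plates.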

Serdemetan + Olaparib = compound: c1ccc2c(CCNc3ccc(Nc4ccncc4)cc3)c[nH]c2c1 [Serdemetan] + O=C(c1cc(Cc2n[nH]c(=O)c3ccccc23)ccc1F)N1CCN(C(=O)C2CC2)CC1 [Olaparib] (partner 8 µM)
How it was run: as §1

Selisistat + Foretinib = compound: C1CC(C2=C(C1)C3=C(N2)C=CC(=C3)Cl)C(=O)N [Selisistat] + COc1cc2c(Oc3ccc(NC(=O)C4(C(=O)Nc5ccc(F)cc5)CC4)cc3F)ccnc2cc1OCCCN1CCOCC1 [Foretinib] (partner 0.25 µM)
How it was run: as §1

Selisistat + Pictilisib = compound: C1CC(C2=C(C1)C3=C(N2)C=CC(=C3)Cl)C(=O)N [Selisistat] + CS(=O)(=O)N1CCN(Cc2cc3nc(-c4cccc5[nH]ncc45)nc(N4CCOCC4)c3s2)CC1 [Pictilisib] (partner 1 µM)
How it was run: as §1

Row | Cell Line | relative viability (Serdemetan + Tozasertib; first compound 0.04 µM) | relative viability (Serdemetan + Tozasertib; first compound 0.1265 µM) | relative viability (Serdemetan + Tozasertib; first compound 0.4 µM) | relative viability (Serdemetan + Tozasertib; first compound 1.265 µM) | relative viability (Serdemetan + Tozasertib; first compound 4 µM) | relative viability (Serdemetan + Olaparib; first compound 0.04 µM) | relative viability (Serdemetan + Olaparib; first compound 0.1265 µM) | relative viability (Serdemetan + Olaparib; first compound 0.4 µM) | relative viability (Serdemetan + Olaparib; first compound 1.265 µM) | relative viability (Serdemetan + Olaparib; first compound 4 µM) | relative viability (Selisistat + Foretinib; first compound 0.4 µM) | relative viability (Selisistat + Foretinib; first compound 1.265 µM) | relative viability (Selisistat + Foretinib; first compound 4 µM) | relative viability (Selisistat + Foretinib; first compound 12.65 µM) | relative viability (Selisistat + Foretinib; first compound 40 µM) | relative viability (Selisistat + Pictilisib; first compound 0.4 µM) | relative viability (Selisistat + Pictilisib; first compound 1.265 µM) | relative viability (Selisistat + Pictilisib; first compound 4 µM) | relative viability (Selisistat + Pictilisib; first compound 12.65 µM) | relative viability (Selisistat + Pictilisib; first compound 40 µM)
1 | NCI-H2342 | 0.607 | 0.553 | 0.605 | 0.493 | 0.408 | 0.621 | 0.445 | 0.416 | 0.236 | 0.334 | 0.997 | 0.986 | 0.896 | 1.09 | 1.07 | – | – | – | – | –
2 | SK-MES-1 | 0.871 | 0.859 | 0.851 | 0.747 | 0.865 | 0.688 | 0.687 | 0.635 | 0.522 | 0.43 | 0.908 | 0.762 | 0.624 | 0.879 | 0.883 | 0.37 | 0.309 | 0.315 | 0.329 | 0.366
3 | HCC-366 | 0.134 | 0.0681 | 0.0532 | 0.0456 | 0.042 | 0.22 | 0.0954 | 0.0557 | 0.0411 | 0.0631 | 0.837 | 0.892 | 0.755 | 0.862 | 0.957 | 0.098 | 0.135 | 0.129 | 0.0936 | 0.207
4 | 201T | 0.983 | 0.939 | 0.925 | 0.787 | 0.497 | 0.821 | 0.8 | 0.822 | 0.543 | 0.492 | 1.06 | 1.03 | 0.997 | 0.986 | 1.11 | 0.69 | 0.648 | 0.58 | 0.673 | 0.685
5 | HCC-827 | 0.406 | 0.393 | – | 0.297 | 0.308 | 0.631 | 0.594 | – | 0.509 | 0.306 | 1.17 | 1.09 | 1.02 | 0.9 | 1.08 | 0.86 | 0.91 | 1.03 | 0.962 | 1.04
6 | NCI-H647 | 0.355 | 0.291 | 0.226 | 0.287 | 0.223 | 0.51 | 0.495 | 0.534 | 0.27 | 0.165 | 1.18 | 1.13 | 1.19 | 1.16 | 1.25 | 0.488 | – | 0.289 | 0.422 | 0.361
7 | NCI-H2023 | 0.377 | 0.359 | 0.309 | 0.298 | 0.153 | 0.512 | 0.459 | 0.323 | 0.152 | 0.203 | 0.879 | 0.81 | 0.966 | 0.873 | 0.904 | 0.25 | 0.265 | 0.201 | 0.255 | 0.222
8 | NCI-H520 | 0.42 | 0.413 | 0.441 | 0.329 | 0.313 | 0.335 | 0.347 | 0.27 | 0.199 | 0.26 | 0.691 | 0.699 | 0.715 | 0.801 | 0.746 | 0.262 | 0.304 | 0.15 | 0.294 | 0.354
9 | RERF-LC-KJ | 0.49 | 0.441 | 0.479 | 0.455 | 0.469 | 1.03 | 0.872 | 0.889 | 0.747 | 0.835 | 0.902 | 0.783 | 0.84 | 0.829 | 0.803 | 0.6 | 0.436 | 0.432 | 0.471 | 0.48
10 | A-427 | 0.2 | 0.198 | 0.192 | 0.165 | 0.16 | 0.693 | 0.639 | 0.711 | 0.66 | 0.643 | 1.02 | 0.976 | 1.02 | 1.12 | 0.984 | 0.625 | 0.622 | 0.327 | 0.656 | 0.73
11 | NCI-H441 | 0.719 | 0.669 | 0.687 | 0.709 | 0.605 | 0.513 | 0.422 | 0.5 | 0.3 | 0.281 | 0.936 | 1.12 | 0.961 | 0.951 | 0.817 | 0.511 | 0.44 | 0.405 | 0.547 | 0.48
12 | NCI-H1703 | – | – | – | – | – | 0.427 | 0.397 | 0.415 | 0.386 | 0.333 | 0.338 | 0.336 | 0.365 | 0.356 | 0.313 | 0.232 | 0.217 | 0.242 | 0.267 | 0.233
13 | NCI-H1792 | – | – | – | – | – | 0.405 | 0.336 | 0.231 | 0.0956 | 0.116 | – | – | – | – | – | 0.327 | 0.281 | – | 0.251 | 0.279
14 | Calu-6 | – | – | – | – | – | 0.561 | 0.612 | 0.555 | 0.412 | 0.362 | 0.932 | 0.812 | 0.814 | 0.853 | 0.84 | 0.867 | 0.886 | 0.895 | 0.872 | 0.925
15 | SK-LU-1 | 0.378 | 0.298 | 0.337 | – | 0.294 | 0.463 | 0.369 | 0.479 | 0.308 | 0.365 | 0.883 | 0.811 | 0.865 | 0.813 | 0.825 | 0.65 | 0.637 | 0.429 | 0.695 | 0.635
16 | PC-3 [JPC-3] | 0.841 | 0.795 | 0.784 | 0.929 | 0.87 | 1.11 | 1.08 | 0.969 | 1.09 | 1.18 | 1.07 | 1.04 | 1.01 | 1.07 | 1.06 | 0.753 | 0.749 | 0.449 | 0.631 | 0.696
17 | EMC-BAC-2 | 0.246 | 0.298 | 0.248 | 0.22 | 0.217 | 0.447 | 0.446 | 0.473 | 0.338 | 0.403 | 1.03 | 0.97 | 0.962 | 1.11 | 0.842 | 0.551 | 0.53 | 0.477 | 0.577 | 0.524
